Values after ≈ are worked out from the molar mass of the structure shown. Peptide text beside a SMILES is read from it.
Tests used:
[1] = system: Sprague-Dawley rats; assay: secondary adhesions after adhesiolysis, mesh implanted (Example 3); assay type: in vivo, rat; conditions: three weeks after adhesiolysis and alanyl-glutamine; six months after initial surgery with mesh
Experimental: Adhesions tend to recur once in place. We examined the effect of alanyl-glutamine treatment on such secondary adhesions. The modified cecal perforation with pulstring closure procedure described in Example 1 was performed on 9 Sprague-Dawley rats. These were divided into 5 groups, each group receiving a different form of mesh (INTERCEED™; PROCEED™; BARD™ composite; prolene; and a mesh which was allowed to be “infected” by repeated re-opening of the wound). The surgical procedure with mesh implacement was performed without application of a glutamine source. Six months after initial surgery, a laparotomy was performed on each rat then adhesiolysis followed by installation of alanyl-glutamine.

[2] = system: male Wistar rats; assay: modified cecal puncture with pulstring, post-operative adhesion formation (Example 1); assay type: in vivo, rat; conditions: for complications due to intraperitoneal use: 0.3-1.5 g/kg intra-peritoneally; for acute inflammatory response (macrophages and macrophage chemotactic proteins): days 3-7
Experimental: 70 plus male Wistar rats (over 350 g each) were assessed histologically on post-operative days 1, 3, 5, 7, 10, 30, and at about 6 weeks. The rats were randomly distributed based on the mode of treatment, type of sutures and presence or absence of hemorrhage during surgery. Initially, there were three surgery groups (alanyl-glutamine treatment, saline, no treatment) plus a control (no surgery). A fifth group using L-glutamine instead of alanyl-glutamine was included after preliminary results were obtained.
The rats were anaesthetized with halothane/Ketamine. Open surgery involving a midline sub-umbilical incision and a modified cecal puncture with pulstring to prevent soilage after abdominal closure was done. The procedure involved some fecal extrusion, mimicking clinical scenarios of iatrogenic/traumatic perforations of the bowel. Alanyl-glutamine [Degussa; Coubevoie, France] (0.3 g/kg-1.5 g/kg); saline (5 ml); or L-glutamine [Wiler; PCCA] (1.5 g/kg) was instilled into the peritoneal cavity from a syringe. The cecum, abdomen, and the skin were closed in layers using the same suture. Various absorbable (3/0 Vicryl™, 3/0 Monocryl™, 3/0 PDS™, 2/0 Maxon™) and non-absorbable sutures (3/0 Prolene™, 3/0 Ethibond™, 4/0 & 5/0 Surgilene™, 3/0 Novafil™) were used. The wound was infiltrated with local anesthetic. The animals were given sufficient chow to eat (20 g/day≈2 mmole/kg/day). The gastrointestinal tract and omentum were harvested from the stomach to the sigmoid colon and fixed in formaldehyde solution for evaluation.
The severity of adhesions was assessed histologically using standard Haematoxylin & Eosin and Masson trichrome stained slides. The latter helped delineate the degree of fibrosis and collagen deposition.
Semi-quantitative analysis was done by scoring the average number of milky spots per high-power-field (HPF). Quantitative statistical analysis was done using the T-test between the experimental groups. Milky spots are a marker for inflammation and adhesion formation.
We evaluated macrophage activity following the abdominal surgery using a macrophage chemotactic protein (MCP1) antibody stain. MCP1 is a marker for macrophage activity. […] The fact that MCP1 was reduced by the treatment but was not completely absent is significant since complete absence is not desirable as it is associated with peritonitis and septic complications post-laparotomy.

[3] = cited from earlier work
[4] = system: rats; assay: cecal puncture with Marlex mesh inserted, adhesion score of Zuhlke (Example 2); assay type: in vivo, rat; conditions: day 90
Experimental: Previous studies show a high incidence of adhesion formation when surgical mesh is employed as a reinforcing material [6a, 6b]. We repeated trials as described in Example 1, inserting Marlex™ mesh during the procedure on the surgical groups.
Severity of adhesions was assessed at day 90 using the adhesion score of Zuhlke, et al.. This scoring procedure has been described in the literature for assessment of other potential treatments for adhesions. […] This differs from previous measurements of adhesions using polypropylene mesh which reported up to about 90% adhesion formation [6a].

[5] = versus saline and non-treatment surgical groups

complications due to intraperitoneal use [2]	SMILES	recurrence of adhesions (secondary adhesions), scored according to Zuhlke [1]	effectiveness of dosage ([2]; 0.3 g/kg intraperitoneal)	effectiveness of dosage ([2]; 1.5 g/kg intraperitoneal)	histological appearance of the peritoneum, adhesion ([2]; 10th post-operative day, intraperitoneal, compared with untreated and saline treated surgical groups)	fibrosis and collagen deposition ([2]; day-10 animals, versus saline and non-treatment surgical groups)	acute inflammatory response (macrophages and macrophage chemotactic proteins) [2, 5]	milky spots per 5 high power field (5HPF) ([2]; peritoneum, controls 1 per 5HPF, untreated surgical group 6-7 per 5HPF)	adhesions in all the suture groups (braided and monofilament) ([2]; rat, in vivo)	adhesion, histological, later assessment ([2]; rats assessed at 6 weeks)	solubility in water [3]	adhesion score of Zuhlke [4]	water solubility ([3]; at 20° C.)
did not observe complications	C[C@H](N)C(=O)N[C@@H](CCC(N)=O)C(=O)O [alanyl-glutamine] (H-Ala-Gln-OH)	no secondary adhesions were seen	effective	effective	very minimal adhesion	reduced	markedly reduced	the same as the controls	prevented adhesions	This result continued	568 mg/mL (≈ 2610 mM)	0-1	
did not observe complications	NC(=O)CC[C@H](N)C(=O)O [L-glutamine]						reduction, but to a lesser extent						36 mg/mL (≈ 246 mM)
	NCC(=O)N[C@@H](CCC(N)=O)C(=O)O [Glycyl-glutamine] (H-Gly-Gln-OH)										154 mg/mL (≈ 758 mM)		

Reference: patent US20100105628A1, “REDUCING POST-OPERATIVE ADHESION FORMATION WITH INTRAPERITONEAL GLUTAMINE” (UNIVERSITY OF SASKATCHEWAN, priority 2007, published 2010)
